# Experimental data taken from the supplement of paper PMC10307832.
# Tests used:
# Assay in all cases: relative viability (nuclei count vs DMSO), 5 days (fraction); higher = more cells survive
# NCI-H23 = system: NCI-H23
# How it was run: (§1)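 Five library-drug doses in √10 steps were combined with a fixed anchor-drug dose, or a single drug was given alone, by pin tool to lung cancer cell lines in 1536-well plates the day after seeding. Nuclei were stained and counted after 5 days. Relative viability is the nuclei count in treated wells over that in vehicle wells, taken as the median of duplicate plates.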
# NCI-H358 = system: NCI-H358
# How it was run: as §1
# NCI-H1792 = system: NCI-H1792
# How it was run: as §1
# SK-MES-1 = system: SK-MES-1
# How it was run: as §1
# NCI-H1793 = system: NCI-H1793
# How it was run: as §1
# LC-2-ad = system: LC-2-ad
# How it was run: as §1
# NCI-H1395 = system: NCI-H1395
# How it was run: as §1
# NCI-H2023 = system: NCI-H2023
# How it was run: as §1
# NCI-H650 = system: NCI-H650
# How it was run: as §1
# PC-14 = system: PC-14
# How it was run: as §1
# COR-L23 = system: COR-L23
# How it was run: as §1
# NCI-H2009 = system: NCI-H2009
# How it was run: as §1
# NCI-H2347 = system: NCI-H2347
# How it was run: as §1
# 201T = system: 201T
# How it was run: as §1
# HCC-15 = system: HCC-15
# How it was run: as §1
# NCI-H1915 = system: NCI-H1915
# How it was run: as §1
# NCI-H1437 = system: NCI-H1437
# How it was run: as §1
# EMC-BAC-2 = system: EMC-BAC-2
# How it was run: as §1
# HCC-366 = system: HCC-366
# How it was run: as §1
# COR-L 105 = system: COR-L 105
# How it was run: as §1
# NCI-H1755 = system: NCI-H1755
# How it was run: as §1
smiles,measurement,setting,value
Cc1csc(=NC2CCCCC2)n1/N=C/c1ccc(O)c(O)c1O [MIM1] + CS(=O)(=O)CCNCc1ccc(-c2ccc3ncnc(Nc4ccc(OCc5cccc(F)c5)c(Cl)c4)c3c2)o1 [Lapatinib] (partner 2 µM),relative viability,NCI-H23; first compound 0.2 µM,1.13
same,relative viability,NCI-H23; first compound 2 µM,0.734
same,relative viability,NCI-H23; first compound 6.325 µM,0.88
same,relative viability,NCI-H23; first compound 20 µM,0.177
same,relative viability,NCI-H358; first compound 0.2 µM,0.506
same,relative viability,NCI-H358; first compound 0.6325 µM,0.475
same,relative viability,NCI-H358; first compound 2 µM,0.433
same,relative viability,NCI-H358; first compound 6.325 µM,0.36
same,relative viability,NCI-H358; first compound 20 µM,0.303
same,relative viability,NCI-H1792; first compound 0.2 µM,0.861
same,relative viability,NCI-H1792; first compound 0.6325 µM,0.897
same,relative viability,NCI-H1792; first compound 2 µM,0.983
same,relative viability,NCI-H1792; first compound 6.325 µM,0.527
same,relative viability,NCI-H1792; first compound 20 µM,0.294
same,relative viability,SK-MES-1; first compound 0.2 µM,0.479
same,relative viability,SK-MES-1; first compound 0.6325 µM,0.441
same,relative viability,SK-MES-1; first compound 2 µM,0.504
same,relative viability,SK-MES-1; first compound 6.325 µM,0.416
same,relative viability,SK-MES-1; first compound 20 µM,0.617
same,relative viability,NCI-H1793; first compound 0.2 µM,0.768
same,relative viability,NCI-H1793; first compound 0.6325 µM,0.623
same,relative viability,NCI-H1793; first compound 2 µM,0.645
same,relative viability,NCI-H1793; first compound 6.325 µM,0.669
same,relative viability,NCI-H1793; first compound 20 µM,0.459
same,relative viability,LC-2-ad; first compound 0.2 µM,0.938
same,relative viability,LC-2-ad; first compound 0.6325 µM,0.506
same,relative viability,LC-2-ad; first compound 2 µM,0.888
same,relative viability,LC-2-ad; first compound 6.325 µM,0.352
same,relative viability,LC-2-ad; first compound 20 µM,0.132
same,relative viability,NCI-H1395; first compound 0.2 µM,1.14
same,relative viability,NCI-H1395; first compound 0.6325 µM,1.1
same,relative viability,NCI-H1395; first compound 2 µM,0.862
same,relative viability,NCI-H1395; first compound 6.325 µM,0.711
same,relative viability,NCI-H1395; first compound 20 µM,0.515
same,relative viability,NCI-H2023; first compound 0.2 µM,0.947
same,relative viability,NCI-H2023; first compound 0.6325 µM,0.716
same,relative viability,NCI-H2023; first compound 2 µM,0.683
same,relative viability,NCI-H2023; first compound 6.325 µM,0.253
same,relative viability,NCI-H2023; first compound 20 µM,0.0707
same,relative viability,NCI-H650; first compound 0.2 µM,0.976
same,relative viability,NCI-H650; first compound 0.6325 µM,0.737
same,relative viability,NCI-H650; first compound 2 µM,0.897
same,relative viability,NCI-H650; first compound 6.325 µM,0.791
same,relative viability,NCI-H650; first compound 20 µM,0.235
same,relative viability,PC-14; first compound 0.2 µM,0.305
same,relative viability,PC-14; first compound 0.6325 µM,0.332
same,relative viability,PC-14; first compound 2 µM,0.363
same,relative viability,PC-14; first compound 6.325 µM,0.349
same,relative viability,PC-14; first compound 20 µM,0.479
same,relative viability,COR-L23; first compound 0.2 µM,0.931
same,relative viability,COR-L23; first compound 0.6325 µM,1.07
same,relative viability,COR-L23; first compound 2 µM,0.844
same,relative viability,COR-L23; first compound 6.325 µM,0.619
same,relative viability,COR-L23; first compound 20 µM,0.286
same,relative viability,NCI-H2009; first compound 0.2 µM,1.04
same,relative viability,NCI-H2009; first compound 0.6325 µM,0.876
same,relative viability,NCI-H2009; first compound 2 µM,1.1
same,relative viability,NCI-H2009; first compound 6.325 µM,0.449
same,relative viability,NCI-H2009; first compound 20 µM,0.133
same,relative viability,NCI-H2347; first compound 0.2 µM,0.941
same,relative viability,NCI-H2347; first compound 0.6325 µM,1.07
same,relative viability,NCI-H2347; first compound 2 µM,0.999
same,relative viability,NCI-H2347; first compound 6.325 µM,0.59
same,relative viability,NCI-H2347; first compound 20 µM,0.399
same,relative viability,201T; first compound 0.2 µM,1.08
same,relative viability,201T; first compound 0.6325 µM,1.05
same,relative viability,201T; first compound 2 µM,1.01
same,relative viability,201T; first compound 6.325 µM,0.49
same,relative viability,201T; first compound 20 µM,0.617
same,relative viability,HCC-15; first compound 0.2 µM,0.844
same,relative viability,HCC-15; first compound 0.6325 µM,0.554
same,relative viability,HCC-15; first compound 2 µM,0.98
same,relative viability,HCC-15; first compound 6.325 µM,0.415
same,relative viability,HCC-15; first compound 20 µM,0.102
same,relative viability,NCI-H1915; first compound 0.2 µM,0.996
same,relative viability,NCI-H1915; first compound 0.6325 µM,0.659
same,relative viability,NCI-H1915; first compound 2 µM,0.82
same,relative viability,NCI-H1915; first compound 6.325 µM,0.536
same,relative viability,NCI-H1915; first compound 20 µM,0.357
same,relative viability,NCI-H1437; first compound 0.2 µM,0.761
same,relative viability,NCI-H1437; first compound 0.6325 µM,0.672
same,relative viability,NCI-H1437; first compound 2 µM,0.91
same,relative viability,NCI-H1437; first compound 6.325 µM,0.456
same,relative viability,NCI-H1437; first compound 20 µM,0.148
same,relative viability,EMC-BAC-2; first compound 0.2 µM,0.861
same,relative viability,EMC-BAC-2; first compound 0.6325 µM,0.713
same,relative viability,EMC-BAC-2; first compound 2 µM,0.869
same,relative viability,EMC-BAC-2; first compound 6.325 µM,0.828
same,relative viability,EMC-BAC-2; first compound 20 µM,0.212
same,relative viability,HCC-366; first compound 0.2 µM,1.01
same,relative viability,HCC-366; first compound 0.6325 µM,0.905
same,relative viability,HCC-366; first compound 2 µM,0.741
same,relative viability,HCC-366; first compound 6.325 µM,0.548
same,relative viability,HCC-366; first compound 20 µM,0.0188
same,relative viability,COR-L 105; first compound 0.2 µM,0.371
same,relative viability,COR-L 105; first compound 0.6325 µM,0.331
same,relative viability,COR-L 105; first compound 2 µM,0.373
same,relative viability,COR-L 105; first compound 6.325 µM,0.319
same,relative viability,COR-L 105; first compound 20 µM,0.294
same,relative viability,NCI-H1755; first compound 0.2 µM,1.04
same,relative viability,NCI-H1755; first compound 0.6325 µM,0.973
same,relative viability,NCI-H1755; first compound 2 µM,1.03
same,relative viability,NCI-H1755; first compound 6.325 µM,0.722
same,relative viability,NCI-H1755; first compound 20 µM,0.251
